Experiments:
ALK(h) = biological target: T1, ALK(h) (Homo sapiens, UniProt Q9UM73); assay: Upstate kinase activity inhibition assay ALK(h); format: biochemical; details: 40 min; read-out: percentage of enzyme activity that remains
T1 construct: purchased Upstate (KinaseProfiler service)

Axl(h) = biological target: T2, Axl(h) (Homo sapiens, UniProt P30530); assay: Upstate kinase activity inhibition assay Axl(h); format: biochemical; details: 40 min; read-out: percentage of enzyme activity that remains
T2 construct: purchased Upstate (KinaseProfiler service)

BTK(h) = biological target: T3, BTK(h) (Homo sapiens, UniProt Q06187); assay: Upstate kinase activity inhibition assay BTK(h); format: biochemical
T3 construct: purchased Upstate (KinaseProfiler service)

CDK7/cyclinH/MAT1(h) = biological target: T4, CDK7/cyclinH/MAT1(h) (Homo sapiens, UniProt P50613); assay: Upstate kinase activity inhibition assay CDK7/cyclinH/MAT1(h); format: biochemical; details: 40 min, read-out: percentage of enzyme activity that remains
T4 construct: purchased Upstate (KinaseProfiler service)

CDK9/cyclin T1(h) = biological target: T5, CDK9/cyclin T1(h) (Homo sapiens, UniProt P50750); assay: Upstate kinase activity inhibition assay CDK9/cyclin T1(h); format: biochemical; details: 40 min; read-out: percentage of enzyme activity that remains
T5 construct: purchased Upstate (KinaseProfiler service)

cKit(D816V)(h) = biological target: T6, cKit(D816V)(h) (Homo sapiens, UniProt P10721, D816V); assay: Upstate kinase activity inhibition assay cKit(D816V)(h); format: biochemical; details: 40 min, read-out: percentage of enzyme activity that remains
T6 construct: purchased Upstate (KinaseProfiler service)

cSRC(h) = cSRC(h) (Homo sapiens, UniProt P12931); assay: Upstate kinase activity inhibition assay cSRC(h); format: biochemical; details: 40 min; read-out: percentage of enzyme activity that remains
eEF-2K(h) = biological target: T7, eEF-2K(h) (Homo sapiens, UniProt O00418); assay: Upstate kinase activity inhibition assay eEF-2K(h); format: biochemical; details: 40 min; read-out: percentage of enzyme activity that remains
T7 construct: purchased Upstate (KinaseProfiler service)

EphA8(h) = biological target: T8, EphA8(h) (Homo sapiens, UniProt P29322); assay: Upstate kinase activity inhibition assay EphA8(h); format: biochemical; details: 40 min; read-out: percentage of enzyme activity that remains
T8 construct: purchased Upstate (KinaseProfiler service)

EphB4(h) = biological target: T9, EphB4(h) (Homo sapiens, UniProt P54760); assay: Upstate kinase activity inhibition assay EphB4(h); format: biochemical; details: 40 min; read-out: percentage of enzyme activity that remains
T9 construct: purchased Upstate (KinaseProfiler service)

Fyn(h) = biological target: T10, Fyn(h) (Homo sapiens, UniProt P06241); assay: Upstate kinase activity inhibition assay Fyn(h); format: biochemical; details: 40 min; read-out: percentage of enzyme activity that remains
T10 construct: purchased Upstate (KinaseProfiler service)

LIMK1(h) = biological target: T11, LIMK1(h) (Homo sapiens, UniProt P53667); assay: Upstate kinase activity inhibition assay LIMK1(h); format: biochemical; details: 40 min; read-out: percentage of enzyme activity that remains
T11 construct: purchased Upstate (KinaseProfiler service)

Pim-2(h) = biological target: T12, Pim-2(h) (Homo sapiens, UniProt Q9P1W9); assay: Upstate kinase activity inhibition assay Pim-2(h); format: biochemical; details: 40 min; read-out: percentage of enzyme activity that remains
T12 construct: purchased Upstate (KinaseProfiler service)

PKCβII(h) = biological target: T13, PKCβII(h) (Homo sapiens, UniProt P05771); assay: Upstate kinase activity inhibition assay PKCβII(h); format: biochemical; details: 40 min; read-out: percentage of enzyme activity that remains
T13 construct: purchased Upstate (KinaseProfiler service)

PKCε(h) = biological target: T14, PKCε(h) (Homo sapiens, UniProt Q02156); assay: Upstate kinase activity inhibition assay PKCε(h); format: biochemical; details: 40 min; read-out: percentage of enzyme activity that remains
T14 construct: purchased Upstate (KinaseProfiler service)

PKG1α(h) = biological target: T15, PKG1α(h) (Homo sapiens, UniProt Q13976); assay: Upstate kinase activity inhibition assay PKG1α(h); format: biochemical; details: 40 min; read-out: percentage of enzyme activity that remains
T15 construct: purchased Upstate (KinaseProfiler service)

Ret(h) = biological target: T16, Ret(h) (Homo sapiens, UniProt P07949); assay: Upstate kinase activity inhibition assay Ret(h); format: biochemical; details: 40 min; read-out: percentage of enzyme activity that remains
T16 construct: purchased Upstate (KinaseProfiler service)

Rse(h) = biological target: T17, Rse(h) (Homo sapiens, UniProt Q06418); assay: Upstate kinase activity inhibition assay Rse(h); format: biochemical; details: 40 min; read-out: percentage of enzyme activity that remains
T17 construct: purchased Upstate (KinaseProfiler service)

ZAP-70(h) = biological target: T18, ZAP-70(h) (Homo sapiens, UniProt P43403); assay: Upstate kinase activity inhibition assay ZAP-70(h); format: biochemical; details: 40 min; read-out: percentage of enzyme activity that remains
T18 construct: purchased Upstate (KinaseProfiler service)

Arg(h) = Arg(h) (Homo sapiens, UniProt P42684); assay: Upstate kinase activity inhibition assay Arg(h); details: 40 min, read-out: percentage of enzyme activity that remains
ITK(h) = ITK(h) (Homo sapiens, UniProt Q08881); assay: Upstate kinase activity inhibition assay ITK(h); details: 4 μM Compound E
KDR(h) = KDR(h) (Homo sapiens, UniProt P35968); assay: Upstate kinase activity inhibition assay KDR(h); details: 40 min, read-out: percentage of enzyme activity that remains
MELK(h) = MELK(h) (Homo sapiens, UniProt Q14680); assay: Upstate kinase activity inhibition assay MELK(h); details: 40 min, read-out: percentage of enzyme activity that remains
MLK1(h) = MLK1(h) (Homo sapiens, UniProt P80192); assay: Upstate kinase activity inhibition assay MLK1(h); details: 40 min, read-out: percentage of enzyme activity that remains
PAK6(h) = PAK6(h) (Homo sapiens, UniProt Q9NQU5); assay: Upstate kinase activity inhibition assay PAK6(h); details: 40 min, read-out: percentage of enzyme activity that remains
TAK1(h) = TAK1(h) (Homo sapiens, UniProt O43318); assay: Upstate kinase activity inhibition assay TAK1(h); details: 40 min, read-out: percentage of enzyme activity that remains
TBK1(h) = TBK1(h) (Homo sapiens, UniProt Q9UHD2); assay: Upstate kinase activity inhibition assay TBK1(h); details: 40 min, read-out: percentage of enzyme activity that remains
HIPK2(h) = HIPK2(h) (Homo sapiens, UniProt Q9H2X6); assay: Upstate kinase activity inhibition assay HIPK2(h); details: 40 min, read-out: percentage of enzyme activity that remains
HIPK3(h) = HIPK3(h) (Homo sapiens, UniProt Q9H422); assay: Upstate kinase activity inhibition assay HIPK3(h); details: 40 min, read-out: percentage of enzyme activity that remains
MAPK1(h) = MAPK1(h) (Homo sapiens, UniProt P27361); assay: Upstate kinase activity inhibition assay MAPK1(h); details: 40 min, read-out: percentage of enzyme activity that remains
SRPK2(h) = SRPK2(h) (Homo sapiens, UniProt P78362); assay: Upstate kinase activity inhibition assay SRPK2(h); details: 40 min, read-out: percentage of enzyme activity that remains

MLK1(h), sequence (P80192 whole entry): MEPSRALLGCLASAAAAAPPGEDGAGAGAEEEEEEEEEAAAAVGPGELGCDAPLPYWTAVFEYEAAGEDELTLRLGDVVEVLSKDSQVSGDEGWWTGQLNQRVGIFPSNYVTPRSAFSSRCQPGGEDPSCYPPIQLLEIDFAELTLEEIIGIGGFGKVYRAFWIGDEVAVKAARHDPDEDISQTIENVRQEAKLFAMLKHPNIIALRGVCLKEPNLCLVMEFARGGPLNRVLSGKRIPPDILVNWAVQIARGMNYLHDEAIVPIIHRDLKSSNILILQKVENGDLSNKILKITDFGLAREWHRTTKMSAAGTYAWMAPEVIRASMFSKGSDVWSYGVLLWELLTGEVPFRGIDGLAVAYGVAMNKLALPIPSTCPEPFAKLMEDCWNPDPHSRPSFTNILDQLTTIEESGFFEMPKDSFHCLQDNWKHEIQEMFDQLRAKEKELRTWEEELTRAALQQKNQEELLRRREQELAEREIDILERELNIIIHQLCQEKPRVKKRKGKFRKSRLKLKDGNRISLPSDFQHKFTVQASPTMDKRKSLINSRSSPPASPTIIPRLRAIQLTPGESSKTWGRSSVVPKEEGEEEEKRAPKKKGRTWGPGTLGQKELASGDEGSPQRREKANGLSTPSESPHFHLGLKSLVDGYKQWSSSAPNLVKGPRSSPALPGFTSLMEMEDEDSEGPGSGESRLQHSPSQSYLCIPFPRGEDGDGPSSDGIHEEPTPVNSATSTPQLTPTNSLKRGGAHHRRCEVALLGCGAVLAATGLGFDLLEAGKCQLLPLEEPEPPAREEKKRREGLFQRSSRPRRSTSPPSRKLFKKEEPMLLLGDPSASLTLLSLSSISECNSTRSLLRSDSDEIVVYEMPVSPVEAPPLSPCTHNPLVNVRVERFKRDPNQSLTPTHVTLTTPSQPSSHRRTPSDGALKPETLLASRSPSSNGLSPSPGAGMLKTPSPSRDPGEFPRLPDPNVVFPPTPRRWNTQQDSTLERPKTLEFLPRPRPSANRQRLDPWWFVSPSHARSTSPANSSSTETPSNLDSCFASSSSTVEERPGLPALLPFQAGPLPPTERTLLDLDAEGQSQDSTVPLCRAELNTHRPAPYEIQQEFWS
cSRC(h), sequence (P12931 whole entry): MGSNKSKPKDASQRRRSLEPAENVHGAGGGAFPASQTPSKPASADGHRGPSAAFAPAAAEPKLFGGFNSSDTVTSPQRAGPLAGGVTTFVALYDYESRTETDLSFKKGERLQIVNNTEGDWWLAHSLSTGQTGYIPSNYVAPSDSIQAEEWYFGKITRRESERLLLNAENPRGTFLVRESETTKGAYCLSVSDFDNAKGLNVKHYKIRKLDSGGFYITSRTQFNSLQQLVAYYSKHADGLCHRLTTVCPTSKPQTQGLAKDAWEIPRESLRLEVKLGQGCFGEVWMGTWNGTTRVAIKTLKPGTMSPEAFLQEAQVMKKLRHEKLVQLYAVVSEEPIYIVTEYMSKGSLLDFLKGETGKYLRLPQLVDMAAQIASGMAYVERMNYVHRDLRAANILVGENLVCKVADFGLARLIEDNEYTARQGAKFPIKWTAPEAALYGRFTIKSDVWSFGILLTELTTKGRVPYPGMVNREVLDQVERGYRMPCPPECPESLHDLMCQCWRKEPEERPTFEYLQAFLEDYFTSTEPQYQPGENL
T6 sequence (P10721 26-976 D816V): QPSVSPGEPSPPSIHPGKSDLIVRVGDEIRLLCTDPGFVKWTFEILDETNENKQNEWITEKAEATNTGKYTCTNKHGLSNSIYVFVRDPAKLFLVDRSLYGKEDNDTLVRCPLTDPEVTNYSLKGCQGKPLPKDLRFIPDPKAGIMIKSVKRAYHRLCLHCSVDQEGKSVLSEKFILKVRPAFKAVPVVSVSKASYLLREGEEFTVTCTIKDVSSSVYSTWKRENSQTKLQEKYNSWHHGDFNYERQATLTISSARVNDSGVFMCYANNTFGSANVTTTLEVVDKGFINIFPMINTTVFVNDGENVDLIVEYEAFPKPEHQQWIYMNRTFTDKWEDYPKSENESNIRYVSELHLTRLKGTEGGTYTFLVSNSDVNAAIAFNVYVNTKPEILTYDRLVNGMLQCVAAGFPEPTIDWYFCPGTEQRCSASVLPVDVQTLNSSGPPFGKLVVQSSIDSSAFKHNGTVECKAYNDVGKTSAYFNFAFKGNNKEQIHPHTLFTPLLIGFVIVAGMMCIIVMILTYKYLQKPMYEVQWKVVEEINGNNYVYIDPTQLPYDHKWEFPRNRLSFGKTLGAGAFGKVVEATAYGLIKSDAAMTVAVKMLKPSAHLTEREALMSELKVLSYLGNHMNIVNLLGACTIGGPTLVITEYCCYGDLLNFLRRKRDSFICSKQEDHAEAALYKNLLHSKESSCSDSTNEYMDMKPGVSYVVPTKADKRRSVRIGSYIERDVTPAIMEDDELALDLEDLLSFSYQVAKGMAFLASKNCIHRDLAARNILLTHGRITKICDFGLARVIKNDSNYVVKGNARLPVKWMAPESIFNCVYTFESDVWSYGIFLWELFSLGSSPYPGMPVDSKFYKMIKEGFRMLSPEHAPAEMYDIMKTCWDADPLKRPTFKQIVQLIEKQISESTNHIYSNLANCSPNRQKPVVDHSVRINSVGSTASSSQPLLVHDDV
HIPK2(h), sequence (Q9H2X6 whole entry): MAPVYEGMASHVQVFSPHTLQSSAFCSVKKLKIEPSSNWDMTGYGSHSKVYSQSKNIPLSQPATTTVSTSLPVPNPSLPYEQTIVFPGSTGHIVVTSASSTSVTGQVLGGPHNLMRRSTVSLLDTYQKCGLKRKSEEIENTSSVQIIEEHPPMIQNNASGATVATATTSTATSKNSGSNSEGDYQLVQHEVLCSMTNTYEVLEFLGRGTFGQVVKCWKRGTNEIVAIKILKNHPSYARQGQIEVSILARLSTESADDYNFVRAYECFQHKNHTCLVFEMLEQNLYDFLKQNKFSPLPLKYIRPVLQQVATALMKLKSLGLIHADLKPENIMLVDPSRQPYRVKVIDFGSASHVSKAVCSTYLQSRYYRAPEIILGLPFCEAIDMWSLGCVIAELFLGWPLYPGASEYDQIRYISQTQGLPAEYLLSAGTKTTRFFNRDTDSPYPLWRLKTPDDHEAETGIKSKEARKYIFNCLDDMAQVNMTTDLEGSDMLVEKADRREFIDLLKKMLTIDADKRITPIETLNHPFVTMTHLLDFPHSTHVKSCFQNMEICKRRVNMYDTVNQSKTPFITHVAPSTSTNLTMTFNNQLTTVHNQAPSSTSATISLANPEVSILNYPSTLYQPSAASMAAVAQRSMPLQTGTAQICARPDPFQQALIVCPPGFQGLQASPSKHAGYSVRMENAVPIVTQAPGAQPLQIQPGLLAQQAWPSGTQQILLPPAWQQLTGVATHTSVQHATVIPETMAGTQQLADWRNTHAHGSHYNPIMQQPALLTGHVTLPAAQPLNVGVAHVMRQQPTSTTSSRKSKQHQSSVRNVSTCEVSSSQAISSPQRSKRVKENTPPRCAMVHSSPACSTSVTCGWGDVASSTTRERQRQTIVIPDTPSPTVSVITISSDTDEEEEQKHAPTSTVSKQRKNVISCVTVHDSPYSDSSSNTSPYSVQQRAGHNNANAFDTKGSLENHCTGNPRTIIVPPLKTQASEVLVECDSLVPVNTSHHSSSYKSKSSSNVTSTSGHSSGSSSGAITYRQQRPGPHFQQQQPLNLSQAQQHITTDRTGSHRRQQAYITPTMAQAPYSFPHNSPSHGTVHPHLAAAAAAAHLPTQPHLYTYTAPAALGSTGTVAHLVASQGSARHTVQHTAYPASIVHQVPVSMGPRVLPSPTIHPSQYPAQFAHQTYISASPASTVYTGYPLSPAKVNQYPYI
HIPK3(h), sequence (Q9H422 whole entry): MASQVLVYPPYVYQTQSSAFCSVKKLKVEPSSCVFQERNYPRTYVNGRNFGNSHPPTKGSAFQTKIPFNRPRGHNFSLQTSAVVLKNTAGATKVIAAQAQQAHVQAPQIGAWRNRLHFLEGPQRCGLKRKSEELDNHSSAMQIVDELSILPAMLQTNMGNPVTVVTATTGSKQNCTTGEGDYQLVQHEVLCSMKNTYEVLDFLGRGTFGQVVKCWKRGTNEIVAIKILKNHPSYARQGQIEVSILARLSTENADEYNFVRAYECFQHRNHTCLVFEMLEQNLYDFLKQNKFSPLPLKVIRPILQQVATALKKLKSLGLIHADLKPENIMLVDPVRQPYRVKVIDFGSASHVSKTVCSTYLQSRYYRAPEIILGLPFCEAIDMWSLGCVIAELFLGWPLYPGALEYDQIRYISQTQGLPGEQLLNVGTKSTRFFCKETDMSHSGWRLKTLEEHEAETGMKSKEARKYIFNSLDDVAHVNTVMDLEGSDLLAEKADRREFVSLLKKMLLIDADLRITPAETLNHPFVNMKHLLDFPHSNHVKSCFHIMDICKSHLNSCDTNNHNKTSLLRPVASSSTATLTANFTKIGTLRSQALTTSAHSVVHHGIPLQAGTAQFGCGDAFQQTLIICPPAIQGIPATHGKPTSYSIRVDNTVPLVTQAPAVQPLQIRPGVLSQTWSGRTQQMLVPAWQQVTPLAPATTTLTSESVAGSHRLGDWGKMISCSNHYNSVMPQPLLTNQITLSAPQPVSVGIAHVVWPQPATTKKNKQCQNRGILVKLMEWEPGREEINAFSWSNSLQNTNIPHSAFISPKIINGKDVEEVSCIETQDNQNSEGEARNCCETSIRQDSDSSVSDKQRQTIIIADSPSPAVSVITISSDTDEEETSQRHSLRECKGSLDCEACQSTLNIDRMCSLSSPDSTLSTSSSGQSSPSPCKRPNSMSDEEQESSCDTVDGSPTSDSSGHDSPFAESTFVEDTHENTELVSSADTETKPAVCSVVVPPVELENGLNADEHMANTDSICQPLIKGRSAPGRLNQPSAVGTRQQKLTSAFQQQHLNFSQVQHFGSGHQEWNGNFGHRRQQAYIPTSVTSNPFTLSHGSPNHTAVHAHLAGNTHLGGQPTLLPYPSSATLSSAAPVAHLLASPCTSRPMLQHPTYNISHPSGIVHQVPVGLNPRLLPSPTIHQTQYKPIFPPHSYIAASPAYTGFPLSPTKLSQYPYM

Cc1cc(Nc2cc(N3CCN(C)CC3)nc(Sc3ccc(NC(=O)C4CC4)cc3)n2)n[nH]1 [Compound E, Cyclopropane carboxylic acid {4-[4-(4-methyl-piperazin-1-yl)-6-(5-methyl-2H-pyrazol-3-ylamino)-pyrimidin-2-ylsulphanyl]-phenyl}-amide]
remaining activity at 0.2 µM (ALK(h)): 70%
remaining activity at 4 µM (ALK(h)): 58%
remaining activity at 0.2 µM (Axl(h)): 79%
remaining activity at 4 µM (Axl(h)): 19%
percentage of enzyme activity that remains (BTK(h); 0.2 μM Compound E): 93%
percentage of enzyme activity that remains (BTK(h); 4 μM Compound E): 49%
remaining activity at 0.2 µM (CDK7/cyclinH/MAT1(h)): 113%
remaining activity at 4 µM (CDK7/cyclinH/MAT1(h)): 94%
remaining activity at 0.2 µM (CDK9/cyclin T1(h)): 80%
remaining activity at 4 µM (CDK9/cyclin T1(h)): 84%
remaining activity at 0.2 µM (cKit(D816V)(h)): 89%
remaining activity at 4 µM (cKit(D816V)(h)): 79%
remaining activity at 0.2 µM (cSRC(h)): 87%
remaining activity at 4 µM (cSRC(h)): 25%
remaining activity at 0.2 µM (eEF-2K(h)): 91%
remaining activity at 4 µM (eEF-2K(h)): 82%
remaining activity at 0.2 µM (EphA8(h)): 92%
remaining activity at 0.2 µM (EphB4(h)): 91%
remaining activity at 4 µM (EphB4(h)): 11%
remaining activity at 4 µM (Fyn(h)): 4%
remaining activity at 0.2 µM (LIMK1(h)): 71%
remaining activity at 4 µM (LIMK1(h)): 15%
remaining activity at 0.2 µM (Pim-2(h)): 110%
remaining activity at 4 µM (Pim-2(h)): 124%
remaining activity at 0.2 µM (PKCβII(h)): 99%
remaining activity at 4 µM (PKCβII(h)): 94%
remaining activity at 0.2 µM (PKCε(h)): 98%
remaining activity at 4 µM (PKCε(h)): 96%
remaining activity at 4 µM (PKG1α(h)): 89%
remaining activity at 0.2 µM (Ret(h)): 34%
remaining activity at 4 µM (Ret(h)): 2%
remaining activity at 0.2 µM (Rse(h)): 94%
remaining activity at 4 µM (Rse(h)): 77%
remaining activity at 0.2 µM (ZAP-70(h)): 75%
remaining activity at 4 µM (ZAP-70(h)): 64%
remaining activity at 0.2 µM (Arg(h)): 8%
remaining activity at 4 µM (Arg(h)): -1%
percentage of enzyme activity that remains (ITK(h)): 12%
remaining activity at 0.2 µM (KDR(h)): 87%
remaining activity at 4 µM (KDR(h)): 20%
remaining activity at 0.2 µM (MELK(h)): 56%
remaining activity at 4 µM (MELK(h)): 13%
remaining activity at 0.2 µM (MLK1(h)): 54%
remaining activity at 4 µM (MLK1(h)): 9%
remaining activity at 0.2 µM (PAK6(h)): 92%
remaining activity at 4 µM (PAK6(h)): 92%
remaining activity at 0.2 µM (TAK1(h)): 99%
remaining activity at 4 µM (TAK1(h)): 66%
remaining activity at 0.2 µM (TBK1(h)): 106%
remaining activity at 4 µM (TBK1(h)): 57%
remaining activity at 0.2 µM (HIPK2(h)): 107%
remaining activity at 4 µM (HIPK2(h)): 110%
remaining activity at 0.2 µM (HIPK3(h)): 112%
remaining activity at 4 µM (HIPK3(h)): 95%
remaining activity at 0.2 µM (MAPK1(h)): 94%
remaining activity at 4 µM (MAPK1(h)): 93%
remaining activity at 0.2 µM (SRPK2(h)): 122%
remaining activity at 4 µM (SRPK2(h)): 109%

Source: patent publication US20090105270A1, “Kinase inhibition and anticancer therapy” (priority 2007, published 2009)
